Data taken from PubChem BioAssay AID1963840 (Molecular Pharmacology Branch, DTP, NCI, 2024).
Where “and” joins values, the source holds several entries; their conditions need not be identical. Equal entries are not always repeated.

Test system: 695427-040-R-J1-PDC complex spheroid viability
Test: Anticancer human tumor 695427-040-R-J1-PDC patient-derived colon adenocarcinoma cell line growth inhibition [POLQ]
Details: for viability, T/C: stronger effect = lower value; active = viability on the fitted dose curve at most 10% of control; inactive = the rest
Protocol: Multicellular complex tumor spheroid response to Polymerase (POL) inhibitors (novobiocin, ART-558, RP6685) in combination with a variety of drugs and investigational agents in selected tumor cell lines
The POL inhibitors (novobiocin, ART-558, and RP6685) were evaluated both individually and in combination with standard of care and investigational anticancer small molecules within a complex spheroid model of solid tumors. . Complex spheroids include a stromal component modeled by human endothelial cells (HUVEC) and fibroblasts modeled by human mesenchymal stem cells (MSCs). The concentration ranges selected for each drug and investigational agent were based upon clinically achievable concentrations if the clinical Cmax of the agent was known.
Compounds. The drugs and investigational agents: novobiocin (NSC847541), ART-558 (NSC835418), RP-6685 (NSC848927), peposertib (NSC802822), ceralasertib (NSC780249), elimusertib (NSC800525), camonsertib (NSC841442), AZD-1390 (NSC803789), olaparib (NSC753686), talazoparib (NSC767125), rucaparib (NSC756644), sotorasib (NSC818433), MRTX-1133 (NSC836407), SN-38 (NSC673596), topotecan (NSC609699), epotoside (NSC141540), doxorubicin (NSC123127), gemcitabine (NSC613327), 5-fluorouracil (NSC19893), paclitaxel (NSC125973), vemurafenib (NSC761431), MSA-2 (NSC828583), SN-011 (NSC837082), adavosertib (NSC754352), prexasertib (NSC758257), carboplatin (NSC241240) and oxaliplatin (NSC266046), were obtained from the National Cancer Institute (NCI) Developmental Therapeutics Program Chemical Repository (21). The FDA-approved anticancer drug set is available from the Developmental Therapeutics Program at https://dtp.cancer.gov/organization/dscb/obtaining/. […] The stock solutions were prepared in dimethyl sulfoxide (DMSO, Sigma-Aldrich, St. Louis, MO, cat. D2650), except for the platinum compounds which were prepared in saline (Quality Biological, Gaithersburg, MD, cat. 114-055-101), at 800-fold the tested concentration and stored at -70 degrees C prior to their use. All drugs and investigational agents were tested over a range starting from a high concentration at or near the clinical Cmax and decreasing in half-log increments. If the clinical Cmax for an agent had not been determined, the highest concentration tested was 10 microM, except for SN-38, which was tested at a high concentration of 1 microM.
Cell Culture. All cells were maintained in an incubator at 37 degrees C and 5% CO2 with 95% humidity. The PDC lines were cultured according to standard operating procedures established by the NCI PDMR (https://pdmr.cancer.gov). Table 3 of the manuscript, lists the cell lines along with the number of the three cell types plated to form the mct-spheroids and media for tumor cell growth. After thawing, all PDC lines, except 997537-175-T-J1-PDC and 415267-285-R-J2-PDC, were cultured in Matrigel-coated flasks prepared with a working solution of 1X Ham's F-12 nutrient mix, without supplementation (Thermo Fisher Scientific, cat. 11765054), 100 U/mL penicillin-streptomycin (Thermo Fisher Scientific, cat. 15140122), and 2.5% Matrigel (Corning Inc., Corning, NY, cat. 354248) for the first three passages. The two PDC lines 997537-175-T-J1-PDC and 415267-285-R-J2-PDC were cultured on uncoated flasks. The 857933-349-R-J2-PDC line was cultured in 6C/Colon 1B media containing advanced DMEM/F-12 (Thermo Fisher Scientific, cat. 12634028), 10 mM HEPES (Thermo Fisher Scientific, cat. 15630080), 1X GlutaMAX supplement (Thermo Fisher Scientific, cat. 35050061), 0.1 mg/mL primocin (InvivoGen, San Diego, CA, cat. ant-pm-2), 10% defined fetal bovine serum, heat inactivated (HyClone Laboratories Inc., Logan, UT, cat. SH30070.03HI), 50% L-WRN conditioned media (ATCC, cat. CRL-3276), 1.25 mM N-Acetyl-L-cysteine (Sigma-Aldrich, cat. A9165), 10 mM nicotinamide (Sigma-Aldrich, cat. N0636), 1X B-27 supplement (Thermo Fisher Scientific, cat. 17504044), 1X N-2 supplement (Thermo Fisher Scientific, cat. […]

[1] = curve of first compound, second compound 0.0316 µM
[2] = curve of first compound, second compound 0.1 µM
[3] = curve of first compound, second compound 0.316 µM
[4] = curve of first compound, second compound 1 µM
[5] = curve of first compound, second compound 3.16 µM
[6] = curve of first compound, second compound 10 µM
[7] = second compound 0.0316 µM, first compound 0.0316 µM
[8] = second compound 0.0316 µM, first compound 0.1 µM
[9] = second compound 0.0316 µM, first compound 0.316 µM
[10] = second compound 0.0316 µM, first compound 1 µM
[11] = second compound 0.0316 µM, first compound 3.16 µM
[12] = second compound 0.0316 µM, first compound 10 µM
[13] = second compound 0.1 µM, first compound 0.0316 µM
[14] = second compound 0.1 µM, first compound 0.1 µM
[15] = second compound 0.1 µM, first compound 0.316 µM
[16] = second compound 0.1 µM, first compound 1 µM
[17] = second compound 0.1 µM, first compound 3.16 µM
[18] = second compound 0.1 µM, first compound 10 µM
[19] = second compound 0.316 µM, first compound 0.0316 µM
[20] = second compound 0.316 µM, first compound 0.1 µM
[21] = second compound 0.316 µM, first compound 0.316 µM
[22] = second compound 0.316 µM, first compound 1 µM
[23] = second compound 0.316 µM, first compound 3.16 µM
[24] = second compound 0.316 µM, first compound 10 µM
[25] = second compound 1 µM, first compound 0.0316 µM
[26] = second compound 1 µM, first compound 0.1 µM
[27] = second compound 1 µM, first compound 0.316 µM
[28] = second compound 1 µM, first compound 1 µM
[29] = second compound 1 µM, first compound 3.16 µM
[30] = second compound 1 µM, first compound 10 µM
[31] = second compound 3.16 µM, first compound 0.0316 µM
[32] = second compound 3.16 µM, first compound 0.1 µM
[33] = second compound 3.16 µM, first compound 0.316 µM
[34] = second compound 3.16 µM, first compound 1 µM
[35] = second compound 3.16 µM, first compound 3.16 µM
[36] = second compound 3.16 µM, first compound 10 µM
[37] = second compound 10 µM, first compound 0.0316 µM
[38] = second compound 10 µM, first compound 0.1 µM
[39] = second compound 10 µM, first compound 0.316 µM
[40] = second compound 10 µM, first compound 1 µM
[41] = second compound 10 µM, first compound 3.16 µM
[42] = second compound 10 µM, first compound 10 µM
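Note: spheroids exposed to compounds for seven days.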

COC1C(OC(N)=O)C(O)C(Oc2ccc3c(O)c(NC(=O)c4ccc(O)c(CC=C(C)C)c4)c(=O)oc3c2C)OC1(C)C (stereo unspecified)
inactive: viability, T/C (compound 0.0316 µM) 104% [middle of 13 runs] | viability, T/C (compound 0.1 µM) 104% [middle of 13 runs] | viability, T/C (compound 0.316 µM) 106% [middle of 13 runs] | viability, T/C (compound 1 µM) 106% [middle of 13 runs] | viability, T/C (compound 3.16 µM) 110% [middle of 13 runs] | viability, T/C (compound 10 µM) 110% [middle of 13 runs]
> 10 µM: IC50 (compound alone, run of 10/31/2023)

COc1cccc2c1C(=O)c1c(O)c3c(c(O)c1C2=O)CC(O)(C(=O)CO)CC3OC1CC(N)C(O)C(C)O1 (stereo unspecified) + Nc1ccc(C#CCN(C(=O)Cc2ncc(C(F)(F)F)cc2C(F)(F)F)c2ccc(F)cc2)nn1
inactive: viability, T/C [7] 101% | viability, T/C [8] 90.9% | viability, T/C [9] 97.3% | viability, T/C [10] 78.2% | viability, T/C [11] 79.6% | viability, T/C [12] 71% | viability, T/C [13] 113% | viability, T/C [14] 95% | viability, T/C [15] 98.9% | viability, T/C [16] 80% | viability, T/C [17] 84.5% | viability, T/C [18] 64.6% | viability, T/C [19] 99.6% | viability, T/C [20] 99.8% | viability, T/C [21] 94.4% | viability, T/C [22] 83.7% | viability, T/C [23] 81.5% | viability, T/C [24] 68.3% | viability, T/C [25] 106% | viability, T/C [26] 89.5% | viability, T/C [27] 95.7% | viability, T/C [28] 81.8% | viability, T/C [29] 79.6% | viability, T/C [30] 58.6% | viability, T/C [31] 96.2% | viability, T/C [32] 92% | viability, T/C [33] 90.9% | viability, T/C [34] 77.8% | viability, T/C [35] 76.9% | viability, T/C [36] 51.6% | viability, T/C [37] 95.8% | viability, T/C [38] 84.3% | viability, T/C [39] 86.6% | viability, T/C [40] 68.7% | viability, T/C [41] 50.8% | viability, T/C [42] 35.3%
3.38 µM: IC50 [6]
> 10 µM: IC50 [1] | IC50 [2] | IC50 [3] | IC50 [4] | IC50 [5]

COc1cc(C2c3cc4c(cc3C(OC3OC5COC(C)OC5C(O)C3O)C3COC(=O)C23)OCO4)cc(OC)c1O (stereo unspecified)
> 10 µM: IC50 (curve of compound)
inactive: viability, T/C (compound 0.0316 µM) 95.6% and 105% and 95.5% | viability, T/C (compound 0.1 µM) 91.4% and 94.1% and 99% | viability, T/C (compound 0.316 µM) 96% and 96.6% and 109% | viability, T/C (compound 1 µM) 97.5% (2×) and 101% | viability, T/C (compound 3.16 µM) 91.6% and 99.4% and 94.1% | viability, T/C (compound 10 µM) 90.2% and 90.4% and 80.9%

CCCS(=O)(=O)Nc1ccc(F)c(C(=O)c2c[nH]c3ncc(-c4ccc(Cl)cc4)cc23)c1F + COC1C(OC(N)=O)C(O)C(Oc2ccc3c(O)c(NC(=O)c4ccc(O)c(CC=C(C)C)c4)c(=O)oc3c2C)OC1(C)C
inactive: viability, T/C [7] 102% | viability, T/C [8] 102% | viability, T/C [9] 98.2% | viability, T/C [10] 111% | viability, T/C [11] 116% | viability, T/C [12] 80.7% | viability, T/C [13] 103% | viability, T/C [14] 94.3% | viability, T/C [15] 108% | viability, T/C [16] 111% | viability, T/C [17] 107% | viability, T/C [18] 78.6% | viability, T/C [19] 106% | viability, T/C [20] 98.1% | viability, T/C [21] 97% | viability, T/C [22] 105% | viability, T/C [23] 118% | viability, T/C [24] 88.7% | viability, T/C [25] 102% | viability, T/C [26] 108% | viability, T/C [27] 102% | viability, T/C [28] 109% | viability, T/C [29] 107% | viability, T/C [30] 81.7% | viability, T/C [31] 110% | viability, T/C [32] 107% | viability, T/C [33] 100% | viability, T/C [34] 106% | viability, T/C [35] 109% | viability, T/C [36] 79.4% | viability, T/C [37] 107% | viability, T/C [38] 102% | viability, T/C [39] 91.8% | viability, T/C [40] 113% | viability, T/C [41] 116% | viability, T/C [42] 77%
> 10 µM: IC50 [1] | IC50 [2] | IC50 [3] | IC50 [4] | IC50 [5] | IC50 [6]

CCc1cc2c(N3CCc4c(cc(Cn5ccnc5)cc4-c4cn(C)nc4C(F)(F)F)C3=O)cc(C)nc2c(OC)n1
> 10 µM: IC50 (curve of compound)
inactive: viability, T/C (compound 0.0316 µM) 107% and 108% and 105% | viability, T/C (compound 0.1 µM) 105% and 101% and 108% | viability, T/C (compound 0.316 µM) 110% and 98.6% and 100% | viability, T/C (compound 1 µM) 108% and 101% and 96.8% | viability, T/C (compound 3.16 µM) 104% and 112% and 110% | viability, T/C (compound 10 µM) 96.4% and 97.9% and 106%

CCCS(=O)(=O)Nc1ccc(F)c(C(=O)c2c[nH]c3ncc(-c4ccc(Cl)cc4)cc23)c1F
> 10 µM: IC50 (curve of compound)
inactive: viability, T/C (compound 0.0316 µM) 106% and 102% and 97.1% | viability, T/C (compound 0.1 µM) 94.9% and 109% and 95.8% | viability, T/C (compound 0.316 µM) 95.9% and 109% and 96.2% | viability, T/C (compound 1 µM) 108% and 103% and 104% | viability, T/C (compound 3.16 µM) 110% and 103% and 109% | viability, T/C (compound 10 µM) 87.5% and 88.3% and 86%

O=C(c1cc(Cc2n[nH]c(=O)c3ccccc23)ccc1F)N1CCN(C(=O)C2CC2)CC1
> 10 µM: IC50 (curve of compound)
inactive: viability, T/C (compound 0.0316 µM) 102% and 101% (2×) | viability, T/C (compound 0.1 µM) 87.2% and 107% and 101% | viability, T/C (compound 0.316 µM) 102% and 110% and 100% | viability, T/C (compound 1 µM) 99% and 107% and 102% | viability, T/C (compound 3.16 µM) 101% and 102% and 114% | viability, T/C (compound 10 µM) 97.8% and 97.4% and 107%

CCc1cc2c(N3CCc4c(cc(Cn5ccnc5)cc4-c4cn(C)nc4C(F)(F)F)C3=O)ccnc2c(OC)n1
inactive: viability, T/C (compound 0.0316 µM) 114% and 91.3% and 93.8% | viability, T/C (compound 0.1 µM) 97.6% and 96% and 98.8% | viability, T/C (compound 0.316 µM) 110% and 88.2% and 101% | viability, T/C (compound 1 µM) 106% and 95.6% and 101% | viability, T/C (compound 3.16 µM) 112% (2×) and 103% | viability, T/C (compound 10 µM) 103% and 96% and 100%
> 10 µM: IC50 (curve of compound)
